The term solubility denotes the concentration that dissolves in the medium under given conditions. Higher therefore signals a readily soluble substance.

Data set [1] concerns Radical scavenging activity. Kind of data set: Antioxidant activity assessed as DPPH radical scavenging rate constant measured for 60 secs by spectrophotometric analysis. In kind it is functional. A general note: The DPPH test is a chemical assay of radical scavenging.
In another data set the test system is HL-60. Kind of data set: Cytotoxicity against human HL60 cells assessed as cell viability up to 120 uM after 24 hrs by trypan blue assay. In kind it is cell-based. As to conditions: hl-60, 24 h.
Data set [2] deals with Radical scavenging activity. Kind of data set: Antioxidant activity assessed as DPPH radical scavenging activity at 500 uM measured for 60 secs by spectrophotometric analysis. In kind it is functional.
Data set [3] in a line: Solubility of the compound in PBS buffer at pH 7.4 at 37 degC. In kind it is physicochemical.
Data set [4] can be described thus: Solubility of the compound in serum at pH 7.4. In kind it is ADME.

≈ marks a conversion by molar mass, not a printed value. Calls of active or inactive are those of the source. The rule behind the calls is not given here.

For `Nc1ccc(O)cc1` [4-AMINOPHENOL], the Activity in data set [1] was 310 ×10³ /M/s; with HL-60, “Toxic”.
Consider `O=C1Cc2cccc(O)c2N1`, for which the Activity in data set [1] worked out at 0.12 ×10³ /M/s.
In the case of `Oc1ccc2c(c1)CCC2`, in data set [2], the result was inactive.
With `Oc1ccc2[nH]ccc2c1`, in data set [1], the Activity was 2.6 ×10³ /M/s.
On to `Oc1ccc(O)cc1` [HYDROQUINONE], for which the results for the Activity (in data set [1]; in the data set on HL-60) were 4.4 ×10³ /M/s and “Toxic”, respectively.
In the case of `O=C1Cc2ccccc2N1`, the result in data set [2] was inactive.
As for `Oc1ccc2cc[nH]c2c1`, the Activity in data set [1] is 11 ×10³ /M/s.
On the same count and under the same terms, for `O=C1Cc2ccc(O)cc2N1` the value was 0.93 ×10³ /M/s.
In data set [3], `O=c1[nH]c2ccc(O)nc2[nH]1` registered a solubility of 82 µg/mL (≈ 543 µM). Also, the Activity is 71 ×10³ /M/s in data set [1] and “Non-toxic” in the data set with HL-60.
Consider `COc1ccc2[nH]c(=O)[nH]c2n1`, for which the outcome in data set [2] was inactive.
As to `CC1=NN(c2ccccc2)C(=O)C1`, the Activity in data set [1] amounted to 72 ×10³ /M/s.
Consider `O=c1[nH]c2ccc(O)cc2o1`, for which the Activity in data set [1] turned out to be 8.7 ×10³ /M/s.
The compound `O=c1[nH]c(=O)c2[nH]c(=O)[nH]c2[nH]1` [URIC ACID] returned a solubility in data set [3] of 53 µg/mL (≈ 315 µM). Besides, the Activity result with HL-60 is recorded as “Non-toxic”.
Turning to `O=C1Cc2cc(O)ccc2N1`, the solubility in data set [3] turned out to be 225 µg/mL (≈ 1510 µM). Also, the Activity is 11 ×10³ /M/s in data set [1] and “Non-toxic” in the data set with HL-60.
On to `c1ccc2[nH]cnc2c1`, for which the outcome in data set [2] was inactive.
Regarding `O=c1[nH]c2ccccc2[nH]1`, the result in data set [2] was inactive.
Same read-out and setting: for `COc1ccc2[nH]c(=O)[nH]c2c1` the value was “inactive”.
As to `Oc1cccc2c1CCN2`, in data set [1], the Activity is 0.21 ×10³ /M/s.
Regarding `[Na+].[O-]c1nc2c(O)nc(O)nc2[nH]1`, the concentration in solution in data set [4] (solubility) came to 70 µg/mL. In data set [1], the Activity turned out to be 0.7 ×10³ /M/s.
As to `O=C1Cc2ccccc2C1`, the outcome in data set [2] was inactive.
`O=c1[nH]c2ccc(O)cc2[nH]1`: the solubility in data set [3] amounted to 65 µg/mL (≈ 433 µM). For the same compound, the Activity is 110 ×10³ /M/s in data set [1] and “Non-toxic” in the data set with HL-60.
As for `O=c1[nH]c2cccc(O)c2[nH]1`, the Activity in data set [1] is 0.37 ×10³ /M/s.

The values above are taken from ChEMBL document CHEMBL3217718, “Synthesis, radical scavenging activity and structureactivity relationship of uric acid analogs” (Medchemcomm, 2013).
